A short description of data set [1]: Control group: spontaneous drug degradation in whole blood at 37°C. To be noted: HPLC-MS/MS; for Drug recovery (%) from control group at 24 h: controls of both experiments, whole human blood taken 2 min after injection, not passed through circuit, relative to 2 min baseline; for Drug recovery (%) from control group at 24 h / Mean drug recovery, Control-24 h (Maquet experiment) / Drug recovery, Control-24 h (Sorin experiment): water bath 37°C 24 h; for Drug recovery (%) from control group at 24 h / Mean drug recovery, Control-3 h (Maquet experiment) / Mean drug recovery, Control-6 h (Maquet experiment) / Mean drug recovery, Control-12 h (Maquet experiment) / Mean drug recovery, Control-24 h (Maquet experiment): mean (SD), SD; for Mean drug recovery, Control-3 h (Maquet experiment) / Mean drug recovery, Control-6 h (Maquet experiment) / Mean drug recovery, Control-12 h (Maquet experiment) / Mean drug recovery, Control-24 h (Maquet experiment): control of Maquet experiment, n=2; for Mean drug recovery, Control-3 h (Maquet experiment) / Mean drug recovery, Control-6 h (Maquet experiment) / Mean drug recovery, Control-12 h (Maquet experiment) / Mean drug recovery, Control-24 h (Maquet experiment) / Drug recovery, Control-6 h (Sorin experiment) / Drug recovery, Control-24 h (Sorin experiment) / Drug recovery, Control-3 h (Sorin experiment): whole human blood, no circuit, % of 2 min concentration; for Mean drug recovery, Control-3 h (Maquet experiment) / Drug recovery, Control-3 h (Sorin experiment): water bath 37°C 3 h; for Mean drug recovery, Control-6 h (Maquet experiment) / Drug recovery, Control-6 h (Sorin experiment): water bath 37°C 6 h; for Mean drug recovery, Control-12 h (Maquet experiment): water bath 37°C 12 h; for Drug recovery, Control-6 h (Sorin experiment) / Drug recovery, Control-24 h (Sorin experiment) / Drug recovery, Control-3 h (Sorin experiment): control of Sorin experiment, single measurement.

The conditions of data set [2]: ex vivo experiment by Shekar et al.; cited from earlier work.
The conditions of data set [3]: cited from earlier work; for Lipophilicity (log P): ref DrugBank [12].
Data set [4] is described as follows: Drug recovery in blood-primed ex vivo ECMO circuits (average of Maquet and Sorin). Particulars: for Drug recovery (%) from circuits at 24 h: average over Maquet and Sorin circuits, closed loop primed with fresh whole human blood, 37°C, pH 7.25–7.55, 4–5 L/min, plasma HPLC-MS/MS, relative to 2 min baseline, mean (SD), SD. The protocol: (§1) Four healthy volunteers were recruited. After obtaining informed consent, 402 ml of blood was collected through the cubitus vein using disposable blood bags (Fresenius Kabi), of which 2 ml was used for a routine blood examination. Sorin (LivaNova, London, United Kingdom) and Maquet (Getinge AB, Hirrlingen, Germany) ECMO circuits were used to establish self-circulation and were primed with fresh whole human blood. After the circulation stabilized, the drugs were added to the circuit. Blood samples were collected at different time points, and the drug concentration was measured to observe the recovery rate of different drugs in the ECMO cycle.
(§2) Each circuit consisted of a membrane oxygenator, centrifugal pump, cannula, heat exchanger, and PVC tubing. The materials of each ECMO component are shown in Supplementary Material 1. A reservoir bag containing 30 mL of blood was used to construct a bypass to maintain the pressure of the circuit (Figure 1). Eight hundred milliliters of fresh whole human blood (<1 h old) was used to prime the circuit. Heparin (5,000 U) was added to the circuits to prevent clotting.
(§3) The circuit flow rate was controlled at 4–5 L/min. Circuit temperature was maintained at 37°C.
(§4) These bolus doses were selected to produce concentrations similar to clinical concentrations. The order of administration was determined according to the half-life from long to short. According to the drug instructions, none of the drugs interact with each other ([12]). Two milliliters of physiological saline solution (0.9%) was used to flush the tube after injection of all drugs to avoid drug loss at the entrance of administration.

The conditions of data set [5]: ref DrugBank [12]; cited from earlier work.
Data set [6] is described as follows: Drug recovery in the Maquet ECMO circuit. To be noted: Bioline-coated circuit, whole human blood, 37°C, HPLC-MS/MS, % of 2 min concentration, mean (SD), n=2. How it is done:
as §1, §2, §3, §4
(§5) In this study, two experiments were carried out and 26 blood samples were analyzed. The first experiment was conducted with the Maquet ECMO circuit. […] The blood samples collected at each time point were measured twice due to the uncertainty of the initial experiment.

A short description of data set [7]: Drug recovery in the Sorin ECMO circuit. To be noted: phosphorylcholine-coated circuit, whole human blood, 37°C, HPLC-MS/MS, % of 2 min concentration, single measurement. How it is done: as §1, §2, §3, §4, §5
The conditions of data set [8]: critically ill patients; no reference given; cited from earlier work.

Marks after values point to notes of the source that are not given here. Positions of bridges follow the written chain, without caps; N, C: chain ends. Non-standard residues stand in square brackets, D forms with d. Residues, ends and D or L forms follow the SMILES beside them. *: point of attachment. X1 = CC[C@H](C)CCCCC(=O)*; Dab = NCC[C@H](N)C(=O)O

Regarding `CC[C@H](C)C[C@H](C)CCCCCCCCC(=O)N[C@H]1C[C@@H](O)[C@@H](NCCN)NC(=O)[C@@H]2[C@@H](O)CCN2C(=O)[C@H]([C@H](O)CCN)NC(=O)[C@H]([C@H](O)[C@@H](O)c2ccc(O)cc2)NC(=O)[C@@H]2C[C@@H](O)CN2C(=O)[C@H]([C@@H](C)O)NC1=O` [Caspofungin, caspofungin], the “Drug recovery (%) from control group at 24 h” value in data set [1] is reported as 85.24 (7.93) %. Moreover, the “Average drug recovery at 24 h in the ECMO circuit” value in data set [2] is 56%. In addition, the “Lipophilicity (log P)” value in data set [3] is given as −2.798. Moreover, the “Drug recovery (%) from circuits at 24 h” value in data set [4] was 83.26 (6.17) %. For the same molecule, the “Protein binding rate (%)” value in data set [5] was 97%.

Consider `CCN1CCN(C(=O)N[C@@H](C(=O)N[C@@H]2C(=O)N3C(C(=O)O)=C(CSc4nnnn4C)CS[C@H]23)c2ccc(O)cc2)C(=O)C1=O` [Cefoperazone, cefoperazone], for which, in data set [6], the “Mean drug recovery, Maquet circuit, 5 min” value is reported as 102% (3%); the “Mean drug recovery, Maquet circuit, 15 min” value was 100% (4%); the “Mean drug recovery, Maquet circuit, 30 min” value is 100% (2%); the “Mean drug recovery, Maquet circuit, 1 h” value is 102% (1%). Also, in data set [6], the “Mean drug recovery, Maquet circuit, 3 h” value is reported as 98% (2%); the “Mean drug recovery, Maquet circuit, 6 h” value is on record as 99% (1%); the “Mean drug recovery, Maquet circuit, 12 h” value is 91% (5%); the “Mean drug recovery, Maquet circuit, 24 h” value was 81% (1%). In data set [1], the “Mean drug recovery, Control-3 h (Maquet experiment)” value is recorded as 100% (0%); the “Mean drug recovery, Control-6 h (Maquet experiment)” value is 99% (0%); the “Mean drug recovery, Control-12 h (Maquet experiment)” value is listed as 100% (2%); the “Mean drug recovery, Control-24 h (Maquet experiment)” value was 98% (2%). Moreover, in data set [1], the “Drug recovery, Control-6 h (Sorin experiment)” value was found to be 98%; the “Drug recovery, Control-24 h (Sorin experiment)” value was found to be 98%; the “Drug recovery (%) from control group at 24 h” value is 98.30 (1.17) %. Also, in data set [7], the “Drug recovery, Sorin circuit, 5 min” value worked out at 100%; the “Drug recovery, Sorin circuit, 15 min” value was 100%; the “Drug recovery, Sorin circuit, 30 min” value is 99%; the “Drug recovery, Sorin circuit, 6 h” value is listed as 98%. Also, in data set [7], the “Drug recovery, Sorin circuit, 12 h” value amounted to 92% and the “Drug recovery, Sorin circuit, 24 h” value worked out at 75%. The “Drug recovery, Sorin circuit, 1 h” value in data set [7] (1 h) was 102%. In addition, the “Lipophilicity (log P)” value in data set [3] is recorded as −0.74.

Take `C[C@@H](O)[C@H]1C(=O)N2C(C(=O)O)=C(S[C@@H]3CN[C@H](C(=O)N(C)C)C3)[C@H](C)[C@H]12` [Meropenem, meropenem]: in data set [6], the “Mean drug recovery, Maquet circuit, 5 min” value was 100% (0%); the “Mean drug recovery, Maquet circuit, 15 min” value was 100% (1%); the “Mean drug recovery, Maquet circuit, 30 min” value was 101% (4%); the “Mean drug recovery, Maquet circuit, 1 h” value is recorded as 98% (0%). Moreover, in data set [6], the “Mean drug recovery, Maquet circuit, 3 h” value is given as 93% (2%); the “Mean drug recovery, Maquet circuit, 6 h” value is 83% (7%); the “Mean drug recovery, Maquet circuit, 12 h” value is 64% (2%); the “Mean drug recovery, Maquet circuit, 24 h” value is 45% (5%). Besides, in data set [1], the “Mean drug recovery, Control-3 h (Maquet experiment)” value is listed as 97% (4%); the “Mean drug recovery, Control-6 h (Maquet experiment)” value is recorded as 91% (9%); the “Mean drug recovery, Control-12 h (Maquet experiment)” value was 77% (8%); the “Mean drug recovery, Control-24 h (Maquet experiment)” value is listed as 65% (10%). In addition, in data set [1], the “Drug recovery, Control-3 h (Sorin experiment)” value is 97%; the “Drug recovery, Control-6 h (Sorin experiment)” value was found to be 102%; the “Drug recovery, Control-24 h (Sorin experiment)” value was 95%; the “Drug recovery (%) from control group at 24 h” value was 74.84 (19.10) %. Moreover, in data set [7], the “Drug recovery, Sorin circuit, 3 h” value amounted to 100%; the “Drug recovery, Sorin circuit, 6 h” value stood at 92%; the “Drug recovery, Sorin circuit, 12 h” value stood at 74%; the “Drug recovery, Sorin circuit, 24 h” value is on record as 47%. Moreover, the “Lipophilicity (log P)” value in data set [3] is on record as −0.6. Besides, the “Drug recovery (%) from circuits at 24 h” value in data set [4] is on record as 45.37 (3.58) %. For the same molecule, the “Average loss at 24 h in the circuits” value in data set [4] (loss, average of Maquet and Sorin circuits) is reported as 55%.

For the molecule `CC[C@H](C)CCCCC(=O)N[C@@H](CCN)C(=O)N[C@H](C(=O)N[C@@H](CCN)C(=O)N[C@H]1CCNC(=O)[C@H]([C@@H](C)O)NC(=O)[C@H](CCN)NC(=O)[C@H](CCN)NC(=O)[C@H](CC(C)C)NC(=O)[C@@H](Cc2ccccc2)NC(=O)[C@H](CCN)NC1=O)[C@@H](C)O` [Polymyxin B, polymyxin B] (X1-[Dab]T[Dab][Dab][Dab][dF]L[Dab][Dab]T; lactam 4-C), in data set [1], the “Drug recovery, Control-3 h (Sorin experiment)” value was 91%; the “Drug recovery, Control-6 h (Sorin experiment)” value amounted to 93%; the “Drug recovery, Control-24 h (Sorin experiment)” value is 60.10 (-)^* %. Further, in data set [7], the “Drug recovery, Sorin circuit, 5 min” value came out at 118%; the “Drug recovery, Sorin circuit, 15 min” value is 86%; the “Drug recovery, Sorin circuit, 30 min” value is given as 84%; the “Drug recovery, Sorin circuit, 3 h” value was found to be 117%. In addition, in data set [7], the “Drug recovery, Sorin circuit, 6 h” value is 74%; the “Drug recovery, Sorin circuit, 12 h” value was found to be 74%; the “Drug recovery, Sorin circuit, 24 h” value is reported as 61.66 (-)^* %. The “Lipophilicity (log P)” value in data set [3] is on record as −4.861. Besides, the “Protein binding rate (%)” value in data set [5] is 79–92%.

With `CN(C)c1cc(NC(=O)CNC(C)(C)C)c(O)c2c1C[C@H]1C[C@H]3[C@H](N(C)C)C(O)=C(C(N)=O)C(=O)[C@@]3(O)C(O)=C1C2=O` [Tigecycline, tigecycline], in data set [8], the “Average Vd in critically ill patients” value is 398 L. Besides, the “Drug recovery (%) from control group at 24 h” value in data set [1] is given as 144.54 (2.31) %. Moreover, the “Lipophilicity (log P)” value in data set [3] was 0.8. In addition, in data set [4], the “Drug recovery (%) from circuits at 24 h” value is given as 100.03 (13.68) %.

As to `C[C@@H](c1ncncc1F)[C@](O)(Cn1cncn1)c1ccc(F)cc1F` [Voriconazole, voriconazole], in data set [3], the “Lipophilicity (log P)” value was 2.561.

With `CC(C)c1cccc(C(C)C)c1O` [propofol], the “octanol/water partition (log P)” value in data set [3] was 4.0.
